Measurements as given in US20050079503A1, “Binding domain of Siah (seven in absentia homolog) protein” (PETER MacCALLUM CANCER INSTITUTE, ST. VINCENT'S INSTITUTE …, priority 2001, published 2005).
Substitutions are numbered along the chain they refer to. Entries after “also recorded” stand apart in the source; their conditions may differ. *: point of attachment. Biotin = O=C1N[C@H]2[C@H](CS[C@H]2CCCCC(=O)*)N1

T1: MBP-Siah1a-ZC fusion protein (native Siah substrate-binding domain) (Mus musculus, UniProt P61092)
T1 construct: made in house; host or cells: E. coli BL21DE3
T1 sequence (P61092 80-282): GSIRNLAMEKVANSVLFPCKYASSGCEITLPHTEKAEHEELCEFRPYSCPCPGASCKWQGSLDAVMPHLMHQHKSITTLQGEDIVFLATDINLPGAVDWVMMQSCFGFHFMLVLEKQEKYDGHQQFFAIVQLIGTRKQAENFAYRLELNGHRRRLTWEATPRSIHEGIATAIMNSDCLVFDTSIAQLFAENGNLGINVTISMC

T2: mutant MBP-Siah1a-ZC containing a Leu211 to Arg mutation (Mus musculus, UniProt P61092, L211R)
T2 construct: made in house; the making of the mutant is not described
T2 sequence (P61092 80-282 L211R): T1 sequence (P61092 80-282) with L132R

T3: Siah (Mus musculus, UniProt P61092)
T3 construct: made in house; host or cells: bacteria
T3 sequence (P61092 1-282): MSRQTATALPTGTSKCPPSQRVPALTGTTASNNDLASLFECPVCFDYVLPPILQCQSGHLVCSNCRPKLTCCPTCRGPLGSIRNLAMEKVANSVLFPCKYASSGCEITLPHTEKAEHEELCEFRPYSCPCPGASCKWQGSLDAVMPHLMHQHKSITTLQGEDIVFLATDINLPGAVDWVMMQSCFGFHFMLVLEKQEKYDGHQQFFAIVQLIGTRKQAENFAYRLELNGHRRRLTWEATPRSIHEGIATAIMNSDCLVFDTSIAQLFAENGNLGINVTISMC

T4: mutant form of Siah (Leu211 to Arg) (Mus musculus, UniProt P61092, L211R)
T4 construct: made in house
T4 sequence (P61092 80-282 L211R): T1 sequence (P61092 80-282) with L132R

B1: PHYL: phyllopod (PHYL) protein from Drosophila (protein, UniProt Q27934 1-400, looked up)
Protein phyllopod: MSTNQQQQANPSAAVAAPAASSEYLKRTCLICGCHTNQTINIYEPRSGPNIVQLIQAKFKFQPLNEDKFLCFSCNNWLINWHSLQAVNSNEAESQSQSPSHMGNSVLQQERTKLRPVAMVRPTVRVQPQSQPQLQPQVPINPTPAPIVYSKRRASRRSASVSRMSRVLRQCCVESLRRSPKKRNQQSVFVCLRPQGQKRSNAICKVECVAPRRKPVERLVKDVAATATPTPVLNTQSTPTYQRFPQPSVDGKVVAMFRRLGTTLSREEPAAYSAESNPACSKLPQIMSPLKEAPRWTRDLDDDEILLEFDTAISEVLPTARYQVTHEENKENQQAQEMELELEEEEEVDGRAELEVVQEAEAPLEPQSHHKQGNSHQNSHQASIQLAGLRLPMGLSISLV

Assays:
[1] = biological target: T1, MBP-Siah1a-ZC fusion protein (native Siah substrate-binding domain); assay: ELISA-based binding of biotinylated plectin peptide to Siah substrate-binding domain; settings: peptide captured on Neutravidin plate at 4 μg/ml; ABTS read at A405
Protocol: (§1) Siah SBD binding to the plectin peptide (Biotin-[…]-NH2 corresponding to residues 95-117 of human plectin) was assessed by capturing biotinylated peptide on a 96-well plate coated with 0.5 μg Neutravidin per well. Peptide was captured for 30 min at room temperature at a concentration of 4 μg/ml. MBP-Siah1a-ZC fusion protein was bound to the peptide for 50 min at room temperature (or the controls of buffer alone (PBS/tween 20) or mutant MBP-Siah1a-ZC containing a Leu211 to Arg mutation). Bound protein was quantitated by rabbit anti-MBP antibody (1:300 dilution), then HRP conjugated goat-anti-rabbit antibody. Detection utilised ABTS substrate read at A405.
(§2) Following the identification of a Siah binding motif present in PHYL (RPVAXVXPXXR), a protein database search detected a number of proteins with conserved motifs, including plectin. The Applicants utilised a synthetic peptide corresponding to the sequence […] in plectin to test binding to Siah in an ELISA-based assay, where the underlined sequence corresponds to the amino acids conserved with the PHYL motif. […] Furthermore, as other Siah binding proteins are identified in this way it is predicted that the sequence of the optimal binding motif will be further refined.

[2] = biological target: T2, mutant MBP-Siah1a-ZC containing a Leu211 to Arg mutation; assay: ELISA-based binding of biotinylated plectin peptide to mutant Siah substrate-binding domain; settings: peptide captured on Neutravidin plate at 4 μg/ml; ABTS read at A405
Protocol: as §1, §2

Siah = biological target: T3, Siah; assay: Interaction studies using bacterially expressed proteins; format: binding
Source text: PHYL is known to interact and function with SINA, the Drosophila orthologue of mammalian Siah, in the targeted degradation of the transcriptional repressor tramtrack 88 (TTK88). Applicants have shown that it interacts similarly with mammalian Siah.

[3] = biological target: T4, mutant form of Siah (Leu211 to Arg); assay: Binding of PHYL to mutant form of Siah; settings: method not stated

| Molecule | binding to native Siah substrate-binding domain [1] | binding to mutant form of Siah substrate-binding domain (Leu211 to Arg) [2] | affinity of interaction with Siah (in words) (Siah) | binding to mutant form of Siah [3] |
| --- | --- | --- | --- | --- |
| Biotin-ASLQRVRRPVAMVMPARRTPHVQ-NH2 [plectin peptide] | bound; also recorded: binds | not |  |  |
| B1 |  |  | high affinity | does not bind |
